In US20240109881A1, “Heteroaryl Compounds as Ligand Directed Degraders of IRAK4” (Bristol-Myers Squibb Company, priority 2022, published 2024):

What was measured:
[1] = biological target: T1, IRAK4 (Homo sapiens, UniProt Q9NWZ3); assay: ALE THP1 HTRF (Advanced Lipoxidation End Product THP1 Homogeneous Time Resolved Fluorescence); format: cell-based; settings: THP1 cells
T1 construct: endogenous in cells; host or cells: THP-1 cells
T1 sequence (Q9NWZ3 1-460): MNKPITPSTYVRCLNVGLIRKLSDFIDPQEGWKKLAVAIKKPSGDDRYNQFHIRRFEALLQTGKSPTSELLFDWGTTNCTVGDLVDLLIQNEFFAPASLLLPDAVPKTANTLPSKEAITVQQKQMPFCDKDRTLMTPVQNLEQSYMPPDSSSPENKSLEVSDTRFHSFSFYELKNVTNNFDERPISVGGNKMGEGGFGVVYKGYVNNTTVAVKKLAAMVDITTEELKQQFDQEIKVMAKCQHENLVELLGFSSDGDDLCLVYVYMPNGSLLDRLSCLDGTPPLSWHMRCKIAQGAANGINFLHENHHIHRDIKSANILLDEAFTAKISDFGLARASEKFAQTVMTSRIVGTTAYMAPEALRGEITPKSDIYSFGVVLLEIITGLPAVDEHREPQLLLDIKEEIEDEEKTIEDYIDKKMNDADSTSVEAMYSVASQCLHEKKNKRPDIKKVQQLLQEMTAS
Procedure: For Homogenous Time Resolved Fluorescence (HTRF) assays, a Cisbio HTRF kit was used, which included: Lysis Buffer #1 4×, Blocking Reagent #3 100×, 20× Antibody 1 (Anti-IRAK4 d2), 20× Antibody 2 (Anti-IRAK4 k), and Detection Buffer.
4× Lysis Buffer was stored at 4° C. For use as 1× Lysis buffer, the 4× solution was diluted with de-ionized water (distilled water, Gibco Cat. #15230279) and 100× Blocking Reagent in a 1:3:0.04 volume ratio.
20× Antibody Solution aliquots were stored in −80° C. and the Detection Buffer was stored in 4° C. For use as a 1× Antibody Solution, the 20× Antibody Solution aliquot was diluted with Detection Buffer in a 1:19 volume ratio.
Cells were lysed at room temperature for 45 min with shaking. A BCA protein assay was performed and normalization was conducted to the desired total protein concentration with 1× lysis buffer. Next, 1× Antibody Solutions were prepared by adding 380 μL Detection Buffer to 20 μL 20× Antibody Solution aliquots and mixing well. 1× Antibody Solutions were combined 1:1 and briefly vortexed. For control wells, 20 μL 1× anti IRAK4-k Antibody Solution was saved. The 384-well plate (ProxiPlate-384 Plus, Perkin Elmer Cat. #6008289) was loaded by adding 4 μL of the mixed Antibody Solution to empty wells using a single channel repeater. Using a multi-channel repeater, 16 μL lysate was added per well, and any bubbles that were formed were popped with 20 μL pipette tips and Kimwipe edges. In column 10, triplicates of each control was prepared. In wells A10, B10, and C10, buffer control was prepared by adding 16 μL Lysis Buffer and 4 μL Detection Buffer. In wells D10, E10, and F10, cryptate control was prepared by adding 16 μL Lysis Buffer, 2 μL Detection Buffer, and 2 μL 1× anti IRAK4-k Antibody Solution. In wells G10, H10, and I10, a negative control was prepared by adding 16 μL Lysis Buffer and 4 μL mixed Antibody Solution. The plate was sealed with a clear seal and covered with an aluminum lid. The plate was spun down at 800 g for 5 min and incubated in the dark at room temperature overnight. The next day, the plate was spun down at 800 g for 5 min. The samples were analyzed by a plate reader (Envision, PerkinElmer) using the Desnor 384 HTRF program.

[2] = biological target: T1, IRAK4; assay: LVL THP1 HTRF (THP1 Homogeneous Time Resolved Fluorescence); format: cell-based; settings: THP1 cells, 18 h incubation with compound; for DC50: read-out: LVL THP1 HTRF EC50
Method in brief: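 THP-1 cells in phenol red-free RPMI with 10% FBS were dosed with compound (20 nL in DMSO) for 18 h at 37° C. After 2 h lysis, IRAK4 was detected with anti-IRAK4-d2/anti-IRAK4-K HTRF antibodies for 18 h at room temperature and read at 665/615 nm; a parallel CTG plate was run.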

N#Cc1cnc2c(cnn2-c2cc(NC3CC3)c(C(=O)N[C@H]3CC[C@H]([C@@H]4C[C@H]4N4CCN(c5ccc(C6CCC(=O)NC6=O)cc5)CC4)CC3)cn2)c1 (relative stereo) [P-111]
ALE THP1 HTRF YMIN [1]: 15.6% | EC50 [1]: 24 nM

CC1(c2ccc(N3CCN(CCC4CCC(NC(=O)c5cnc(-n6ncc7cc(C#N)cnc76)cc5NC5CC5)CC4)CC3)cc2)CCC(=O)NC1=O (single isomer, unassigned) [P-94]
ALE THP1 HTRF YMIN [1]: 7.4% | EC50 [1]: 11 nM

N#Cc1cnc2c(cnn2-c2cc(NC3CC3)c(C(=O)N[C@H]3CC[C@H](C4C[C@@H]4N4CCN(c5ccc(C6CCC(=O)NC6=O)cc5)CC4)CC3)cn2)c1 (single isomer, unassigned) [P-110]
ALE THP1 HTRF YMIN [1]: 16.0% | EC50 [1]: 19 nM

N#Cc1cnc2c(cnn2-c2cc(NC3CC3)c(C(=O)N[C@H]3CC[C@H](CCN4CCC(c5ccc(C6(F)CCC(=O)NC6=O)cc5)CC4)CC3)cn2)c1 (single isomer, unassigned) [P-125]
ALE THP1 HTRF YMIN [1]: 9.8% | EC50 [1]: 10 nM

N#Cc1cnc2c(cnn2-c2cc(NC3CC3)c(C(=O)N[C@H]3CC[C@H](CCN4CCC(c5ccc(C6(F)CCC(=O)NC6=O)cc5)CC4)CC3)cn2)c1 (single isomer, unassigned) [P-126]
ALE THP1 HTRF YMIN [1]: 14.9% | EC50 [1]: 296 nM

C[C@H](C#N)Nc1cc(-n2ncc3cc(C#N)cnc32)ncc1C(=O)N[C@H]1CC[C@H](CCN2CCN(c3ccc(C4CCC(=O)NC4=O)cc3)CC2)CC1 (stereo in doubt) [P-128]
ALE THP1 HTRF YMIN [1]: 14.7% | EC50 [1]: 47 nM

O=C1CCC(N2C(=O)c3ccc(N4CCN(C(=O)C5CCC(NC(=O)c6cnc(Nc7ccc8ncsc8c7)cc6NC6CCCC6)CC5)CC4)cc3C2=O)C(=O)N1 (centres unmarked) [P-2]
ALE THP1 HTRF YMIN [1]: 32.7% | EC50 [1]: 97 nM

O=C1CCC(N2C(=O)c3ccc(N4CCN(C[C@H]5CC[C@H](NC(=O)c6cnc(Nc7ccc8ncsc8c7)cc6NC6CCCC6)CC5)CC4)cc3C2=O)C(=O)N1 (some centres unmarked) [P-3, 6-(1,3-benzothiazol-6-ylamino)-4-(cyclopentylamino)-N-[4-[[4-[2-(2,6-dioxo-3-piperidyl)-1,3-dioxo-isoindolin-5-yl]piperazin-1-yl]methyl]cyclohexyl]pyridine-3-carboxamide]
ALE THP1 HTRF YMIN [1]: 35.6% | EC50 [1]: 273 nM

CS(=O)(=O)N1CCC(Nc2cc(Nc3ccc4ncsc4c3)ncc2C(=O)NC2CCC(C(=O)N3CCN(c4ccc5c(c4)C(=O)N(C4CCC(=O)NC4=O)C5=O)CC3)CC2)CC1 (centres unmarked) [P-4, 6-(1,3-benzothiazol-6-ylamino)-N-[4-[4-[2-(2,6-dioxo-3-piperidyl)-1,3-dioxo-isoindolin-5-yl]piperazine-1-carbonyl]cyclohexyl]-4-[(1-methylsulfonyl-4-piperidyl)amino]pyridine-3-carboxamide]
ALE THP1 HTRF YMIN [1]: 35.8% | EC50 [1]: 47 nM

O=C1CCC(N2C(=O)c3ccc(N4CCC(C(=O)NC5CCC(n6cc(-c7cnc(Nc8ccc9ncsc9c8)cc7NC7CCCC7)nn6)CC5)CC4)cc3C2=O)C(=O)N1 (centres unmarked) [P-5]
ALE THP1 HTRF YMIN [1]: 17.1% | EC50 [1]: 54 nM

N#Cc1cnc2c(ccn2-c2cc(NC3CCCC3)c(C(=O)NC3CCC(C(=O)N4CCN(c5ccc6c(c5)C(=O)N(C5CCC(=O)NC5=O)C6=O)CC4)CC3)cn2)c1 (centres unmarked) [P-6]
ALE THP1 HTRF YMIN [1]: 30.4% | EC50 [1]: 18 nM

O=C1CCC(N2C(=O)c3ccc(N4CCN(C(=O)C5CCC(NC(=O)c6cnc(Nc7ccn8nccc8n7)cc6NC6CCCC6)CC5)CC4)cc3C2=O)C(=O)N1 (centres unmarked) [P-7]
ALE THP1 HTRF YMIN [1]: 30.8% | EC50 [1]: 37 nM

C[C@H]1CN(c2ccc3c(c2)C(=O)N(C2CCC(=O)NC2=O)C3=O)CCN1C(=O)C1CCC(NC(=O)c2cnc(Nc3ccc4ncsc4c3)cc2NC2CCCC2)CC1 (some centres unmarked) [P-8]
ALE THP1 HTRF YMIN [1]: 40.8% | EC50 [1]: 27 nM

O=C1CCC(N2C(=O)c3ccc(N4CCN(C(=O)[C@H]5CC[C@H](n6cc(-c7cnc(Nc8ccc9ncsc9c8)cc7NC7CCCC7)nn6)CC5)CC4)cc3C2=O)C(=O)N1 (some centres unmarked) [P-9]
ALE THP1 HTRF YMIN [1]: 20.0% | EC50 [1]: 25 nM

N#Cc1cnc2c(cnn2-c2cc(NC3CCCC3)c(C(=O)NC3CCC(C(=O)N4CCN(c5ccc6c(c5)C(=O)N(C5CCC(=O)NC5=O)C6)CC4)CC3)cn2)c1 (centres unmarked) [P-10]
ALE THP1 HTRF YMIN [1]: 34.8% | EC50 [1]: 87 nM

C[C@H](C#N)Nc1cc(-n2ncc3cc(C#N)cnc32)ncc1-n1cc([C@H]2CC[C@H](CCN3CCC(c4ccc5c(N6CCC(=O)NC6=O)nn(C)c5c4)CC3)CC2)nn1 [P-476]
LVL THP1 HTRF YMIN [2]: 0.9% | DC50 [2]: 2 nM

C[C@H](C#N)Nc1cc(-n2ncc3cc(C#N)cnc32)ncc1-n1cc([C@H]2CC[C@H](CCN3CC(c4ccc(N5CCC(=O)NC5=O)cc4)C3)CC2)nn1 [P-477]
LVL THP1 HTRF YMIN [2]: 18.6% | DC50 [2]: 263 nM

C[C@H](C#N)Nc1cc(-n2ncc3cc(C#N)cnc32)ncc1C(=O)N[C@H]1CC[C@H](CCN2CC[C@H]3[C@@H]2CCN3c2ccc(N3CCC(=O)NC3=O)c(F)c2)CC1 [P-481]
LVL THP1 HTRF YMIN [2]: 9.4% | DC50 [2]: 38 nM

C[C@H](C#N)Nc1cc(-n2ncc3cc(C#N)cnc32)ncc1-n1cc([C@H]2CC[C@H](CCN3C[C@@H](C)N(c4ccc(N5CCC(=O)NC5=O)cc4)C[C@@H]3C)CC2)nn1 [P-483]
LVL THP1 HTRF YMIN [2]: 3.4% | DC50 [2]: 11 nM

C[C@H](C#N)Nc1cc(-n2ncc3cc(C#N)cnc32)ncc1C(=O)N[C@H]1CC[C@H](CCN2CC[C@H]3[C@@H]2CCN3c2ccc(N3CCC(=O)NC3=O)c(F)c2)CC1 [P-484]
LVL THP1 HTRF YMIN [2]: 52.3% | DC50 [2]: 1000 nM

C[C@H](C#N)Nc1cc(N2CCc3cc(C#N)cnc32)ncc1-n1cc([C@H]2CC[C@H](CCN3CCN(c4ccc(N5CCC(=O)NC5=O)cc4)CC3)CC2)nn1 [P-486]
LVL THP1 HTRF YMIN [2]: 24.9% | DC50 [2]: 200 nM

Cc1cc(N2CC[C@H]3[C@@H]2CCN3CC[C@H]2CC[C@H](NC(=O)c3cnc(-n4ncc5cc(C#N)cnc54)cc3N[C@H](C)C#N)CC2)ccc1N1CCC(=O)NC1=O [P-489]
LVL THP1 HTRF YMIN [2]: 84.3% | DC50 [2]: 1000 nM

Cc1cc(N2CC[C@H]3[C@@H]2CCN3CC[C@H]2CC[C@H](NC(=O)c3cnc(-n4ncc5cc(C#N)cnc54)cc3N[C@H](C)C#N)CC2)ccc1N1CCC(=O)NC1=O [P-490]
LVL THP1 HTRF YMIN [2]: 81.6% | DC50 [2]: 1000 nM

C[C@H](C#N)Nc1cc(-n2ncc3cc(C#N)cnc32)ncc1-n1cc([C@H]2CC[C@H](CCN3C[C@@H](C)N(c4ccc(N5CCC(=O)NC5=O)cc4)C[C@H]3C)CC2)nn1 [P-496]
LVL THP1 HTRF YMIN [2]: 2.7% | DC50 [2]: 127 nM

C[C@H](C#N)Nc1cc(-n2ncc3cc(C#N)cnc32)ncc1-n1cc([C@H]2CC[C@H](CCN3CCN(c4ccc5c(N6CCC(=O)NC6=O)nn(C)c5c4)[C@H](C)C3)CC2)nn1 [P-498]
LVL THP1 HTRF YMIN [2]: −2.8% | DC50 [2]: 2 nM

C[C@H](C#N)Nc1cc(-n2ncc3cc(C#N)cnc32)ncc1-n1cc(C2CCC(N3CCN(c4ccc(N5CCC(=O)NC5=O)cc4)CC3)CC2)nn1 (stereo partly drawn) [P-499, 1-(4-(((R)-1-cyanoethyl)amino)-5-(4-(4-(4-(4-(2,4-dioxotetrahydropyrimidin-1(2H)-yl)phenyl)piperazin-1-yl)cyclohexyl)-1H-1,2,3-triazol-1-yl)pyridin-2-yl)-1H-pyrazolo[3,4-b]pyridine-5-carbonitrile]
LVL THP1 HTRF YMIN [2]: 13.6% | DC50 [2]: 172 nM

C[C@H](C#N)Nc1cc(-n2ncc3cc(C#N)cnc32)ncc1-c1cn([C@H]2CC[C@H](CCN3CCN(c4ccc(N5CCC(=O)NC5=O)cc4)[C@H](C)C3)CC2)nn1 [P-501]
LVL THP1 HTRF YMIN [2]: −2.28% | DC50 [2]: 2.2 nM

C[C@H](C#N)Nc1cc(-n2ncc3cc(C#N)cnc32)ncc1-n1cc([C@H]2CC[C@H](CCN3CCN(c4ccc5c(N6CCC(=O)NC6=O)nn(C)c5c4)[C@@H](C)C3)CC2)nn1 [P-502]
LVL THP1 HTRF YMIN [2]: −0.79% | DC50 [2]: 1.2 nM
